# Results from patent US10300014B2, “Nasolacrimal drainage system implants for drug therapy” (Mati Therapeutics Inc., priority 2006, dated 2019).
# Tests used:
# [1] = in water at 25° C.; cited from earlier work
# [2] = system: eye; experiment: sustained release doses of Bimatoprost, reduction in intraocular pressure; assay type: in vivo; details: sustained release 20 to 200 ng daily, 0.2 to 2% of the daily drop dosage
# Procedure: Commercially available solution concentrations of Bimatoprost are 0.03% by weight, often delivered once per day. Although the sustained release amount of Bimatnoprost released each day can vary, a sustained release of […] per day corresponds to about 2% of the 15 μg of Bimatoprost applied with a single drop of a 0.03% solution.
# [3] = system: eye; details: cited from earlier work
# [4] = topical drop, drug available to the eye; cited from earlier work
structure (smiles),measurement,setting,value
CCNC(=O)CCC/C=C\C[C@@H]1[C@@H](/C=C/[C@@H](O)CCc2ccccc2)[C@H](O)C[C@@H]1O [Bimatoprost],aqueous solubility,[1],300 µg/mL
same,reduction in intraocular pressure,[2],at least some reduction in intraocular pressure
CC(C)OC(=O)CCC/C=C\C[C@@H]1[C@@H](CC[C@@H](O)CCc2ccccc2)[C@H](O)C[C@@H]1O [Latanoprost],duration of effective IOP lowering,[3]; about 200 ng of drug remaining on the eye after a Xalatan drop (2.5 μg),at least 24 hours
same,IOP reduction relative to that of the 50 μg/mL QD dose,"[3]; lowest doses of 12.5 μg/mL QD or 15 μg/mL BID, eye drops",60-75%
CC(C)(C)NC[C@H](O)COc1nsnc1N1CCOCC1 [Timolol],bioavailability,[4],30-50%
